Source: ChEMBL document CHEMBL4382204 (Eur J Med Chem, 2018)
Active and inactive are the calls of the source. The rule behind the calls is not given here.

How the values were obtained:
[1] = Apparent clearance during terminal phase in mouse at 10 mg/kg, po by LC-MS/MS analysis; type: ADME, organism-based; details: in vivo, read-out: CLz/F (converted)
K562 = assay: Induction of apoptosis in human K562 cells assessed as cleaved PARP level up to 0.3 uM after 24 hrs by immunoblotting analysis; type: functional, cell-based
[2] = biological target: T1, Bcr/Abl fusion protein (Homo sapiens) (UniProt P00519+P11274); assay: Inhibition of BCR/ABL in human K562 cells assessed as inhibition of ErK phosphorylation up to 0.3 uM after 1 hr by immunoblotting analysis; type: cell-based
[3] = biological target: Cytoplasmic tyrosine-protein kinase BMX (Homo sapiens) (UniProt P51813); assay: Inhibition of wild type C-terminal FLAG-tagged human TEL fused BMX (unknown origin) transfected in mouse BAF3 cells assessed as growth inhibition after 72 hrs by CCK8 assay; type: cell-based
[4] = Oral bioavailability in Sprague-Dawley rat at 10 mg/kg by LC-MS/MS analysis; type: ADME, organism-based; details: in vivo
[5] = system: Bcr/Abl fusion protein (Homo sapiens), P00519+P11274 [T315I]; details: BaF3
[6] = system: Bcr/Abl fusion protein (Homo sapiens), P00519+P11274 [M351T]; details: BaF3
[7] = Apparent volume of distribution during terminal phase in Sprague-Dawley rat at 10 mg/kg, po by LC-MS/MS analysis; type: ADME, organism-based; details: in vivo
[8] = biological target: Fibroblast growth factor receptor 1 (Homo sapiens) (UniProt P11362); assay: Inhibition of wild type C-terminal FLAG-tagged human TEL fused FGFR1 (unknown origin) transfected in mouse BAF3 cells assessed as growth inhibition after 72 hrs by CCK8 assay; type: cell-based
[9] = Tmax in Sprague-Dawley rat at 10 mg/kg, po by LC-MS/MS analysis; type: ADME, organism-based; details: in vivo
[10] = biological target: Proto-oncogene tyrosine-protein kinase Src (Homo sapiens) (UniProt P12931); assay: Inhibition of wild type C-terminal FLAG-tagged human TEL fused SRC (unknown origin) transfected in mouse BAF3 cells assessed as growth inhibition after 72 hrs by CCK8 assay; type: cell-based
[11] = biological target: Vascular endothelial growth factor receptor 1 (Homo sapiens) (UniProt P17948); assay: Inhibition of wild type C-terminal FLAG-tagged human TEL fused FLT1 (unknown origin) transfected in mouse BAF3 cells assessed as growth inhibition after 72 hrs by CCK8 assay; type: cell-based
KU812 cell line = assay: Induction of apoptosis in human KU812 cells assessed as cleaved PARP level up to 0.3 uM after 24 hrs by immunoblotting analysis; type: functional, cell-based
[12] = biological target: Proto-oncogene tyrosine-protein kinase receptor Ret (Homo sapiens) (UniProt P07949); assay: Inhibition of wild type C-terminal FLAG-tagged human TEL fused RET (unknown origin) transfected in mouse BAF3 cells assessed as growth inhibition after 72 hrs by CCK8 assay; type: cell-based
[13] = Apparent clearance during terminal phase in Sprague-Dawley rat at 1 mg/kg, iv by LC-MS/MS analysis; type: ADME, organism-based; details: in vivo
[14] = system: Bcr/Abl fusion protein (Homo sapiens), P00519+P11274 [Y253F]; details: BaF3
[15] = Apparent volume of distribution during terminal phase in mouse at 1 mg/kg, iv by LC-MS/MS analysis; type: ADME, organism-based; details: in vivo, read-out: Vz
[16] = Tmax in mouse at 10 mg/kg, po by LC-MS/MS analysis; type: ADME, organism-based; details: in vivo
[17] = AUC (0 to infinity) in mouse at 10 mg/kg, po by LC-MS/MS analysis; type: ADME, organism-based; set-up: dose 10 mg/kg, route oral, time infinity; details: in vivo
[18] = biological target: T2, Tyrosine-protein kinase ABL1 (Homo sapiens, UniProt P00519); assay: Inhibition of inactive wild type His-tagged ABL (229 to 500 residues) (unknown origin) expressed in baculovirus infected sf9 cells assessed as reduction in autophosphorylation preincubated for 60 mins followed by ATP addition measured after 8 hrs by ADP-Glo assay
[19] = biological target: T2, Tyrosine-protein kinase ABL1; assay: Inhibition of active wild type His-tagged ABL (229 to 500 residues) (unknown origin) expressed in baculovirus infected sf9 cells using ABLtide as substrate after 1 hr by ADP-Glo assay
[20] = Apparent volume of distribution during terminal phase in mouse at 10 mg/kg, po by LC-MS/MS analysis; type: ADME, organism-based; details: in vivo
HL-60 = assay: Antiproliferative activity in human HL60 cells after 72 hrs by CCK8 assay; type: functional; details: HL-60, 72 h
[21] = biological target: Fibroblast growth factor receptor 2 (Homo sapiens) (UniProt P21802); assay: Inhibition of wild type C-terminal FLAG-tagged human TEL fused FGFR2 (unknown origin) transfected in mouse BAF3 cells assessed as growth inhibition after 72 hrs by CCK8 assay; type: cell-based
[22] = Half life in Sprague-Dawley rat at 1 mg/kg, iv by LC-MS/MS analysis; type: ADME, organism-based; details: in vivo
[23] = biological target: Mast/stem cell growth factor receptor Kit (Homo sapiens) (UniProt P10721); assay: Inhibition of wild type C-terminal FLAG-tagged human TEL fused cKIT (unknown origin) transfected in mouse BAF3 cells assessed as growth inhibition after 72 hrs by CCK8 assay; type: cell-based
Bcr/Abl fusion protein = Bcr/Abl fusion protein (Homo sapiens, UniProt P00519); assay: (§1) Inhibition of BCR/ABL in human KU812 cells assessed as inhibition of BCR/ABL autophosphorylation at Y245 site after 1 hr by immunoblotting analysis; type: cell-based
[24] = biological target: T1, Bcr/Abl fusion protein (Homo sapiens); assay: as §1; type: cell-based
[25] = system: Bcr/Abl fusion protein (Homo sapiens), P00519+P11274 [Q252H]; details: BaF3
[26] = system: Tyrosine-protein kinase ABL1 (Homo sapiens), P00519 [T315I]; details: BaF3
MEC1 = assay: Antiproliferative activity in human MEC1 cells after 72 hrs by CCK8 assay; type: functional; details: MEC1, 72 h
[27] = Half life in Sprague-Dawley rat at 10 mg/kg, po by LC-MS/MS analysis; type: ADME, organism-based; details: in vivo
BaF3 = assay: Cell cycle arrest in mouse BAF3 cells expressing BCR/ABL T315I mutant assessed as accumulation at G0/G1 phase up to 0.3 uM after 24 hrs by propidium iodide/RNase staining based flow cytometric analysis; type: functional
[28] = system: Bcr/Abl fusion protein (Homo sapiens), P00519+P11274 [F317I]; details: BaF3
[29] = Selectivity ratio of GI50 for mouse BAF3 cells to GI50 for BCR/ABL T315I mutant (unknown origin) transfected in mouse BAF3 cells
[30] = biological target: Ephrin type-A receptor 2 (Homo sapiens) (UniProt P29317); assay: Inhibition of wild type C-terminal FLAG-tagged human TEL fused EPHA2 (unknown origin) transfected in mouse BAF3 cells assessed as growth inhibition after 72 hrs by CCK8 assay; type: cell-based
[31] = system: Bcr/Abl fusion protein (Homo sapiens), P00519+P11274 [V299L]; details: BaF3
[32] = Tmax in Sprague-Dawley rat at 1 mg/kg, iv by LC-MS/MS analysis; type: ADME, organism-based; details: in vivo

Sequence of Ephrin type-A receptor 2 (Homo sapiens) (P29317 whole entry, the tested form may be a part): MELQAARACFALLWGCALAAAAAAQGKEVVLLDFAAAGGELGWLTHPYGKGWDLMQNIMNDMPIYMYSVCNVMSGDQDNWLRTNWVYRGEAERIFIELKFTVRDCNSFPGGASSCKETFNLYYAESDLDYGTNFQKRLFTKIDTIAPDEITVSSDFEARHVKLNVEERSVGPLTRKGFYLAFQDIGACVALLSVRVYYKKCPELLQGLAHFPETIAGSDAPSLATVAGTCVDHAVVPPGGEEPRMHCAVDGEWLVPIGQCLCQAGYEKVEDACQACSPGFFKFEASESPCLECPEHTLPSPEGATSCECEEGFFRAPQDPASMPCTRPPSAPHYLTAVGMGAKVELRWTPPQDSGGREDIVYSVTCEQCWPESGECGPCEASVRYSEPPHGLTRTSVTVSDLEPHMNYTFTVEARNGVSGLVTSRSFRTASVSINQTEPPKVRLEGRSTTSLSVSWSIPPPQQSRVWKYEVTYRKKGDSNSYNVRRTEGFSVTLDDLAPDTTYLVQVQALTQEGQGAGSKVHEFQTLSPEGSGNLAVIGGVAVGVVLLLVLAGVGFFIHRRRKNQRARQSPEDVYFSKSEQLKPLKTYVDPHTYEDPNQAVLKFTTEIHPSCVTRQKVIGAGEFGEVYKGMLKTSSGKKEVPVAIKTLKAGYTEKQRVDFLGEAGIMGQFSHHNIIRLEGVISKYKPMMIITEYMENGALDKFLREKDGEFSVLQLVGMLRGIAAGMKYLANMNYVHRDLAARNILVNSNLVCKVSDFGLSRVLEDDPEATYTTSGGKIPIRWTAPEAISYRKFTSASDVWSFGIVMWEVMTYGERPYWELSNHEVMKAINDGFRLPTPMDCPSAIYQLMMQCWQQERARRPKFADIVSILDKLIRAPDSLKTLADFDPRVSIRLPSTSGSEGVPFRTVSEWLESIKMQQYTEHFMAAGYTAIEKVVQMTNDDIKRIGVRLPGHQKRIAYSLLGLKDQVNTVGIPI
Sequence of Mast/stem cell growth factor receptor Kit (Homo sapiens) (P10721 whole entry, the tested form may be a part): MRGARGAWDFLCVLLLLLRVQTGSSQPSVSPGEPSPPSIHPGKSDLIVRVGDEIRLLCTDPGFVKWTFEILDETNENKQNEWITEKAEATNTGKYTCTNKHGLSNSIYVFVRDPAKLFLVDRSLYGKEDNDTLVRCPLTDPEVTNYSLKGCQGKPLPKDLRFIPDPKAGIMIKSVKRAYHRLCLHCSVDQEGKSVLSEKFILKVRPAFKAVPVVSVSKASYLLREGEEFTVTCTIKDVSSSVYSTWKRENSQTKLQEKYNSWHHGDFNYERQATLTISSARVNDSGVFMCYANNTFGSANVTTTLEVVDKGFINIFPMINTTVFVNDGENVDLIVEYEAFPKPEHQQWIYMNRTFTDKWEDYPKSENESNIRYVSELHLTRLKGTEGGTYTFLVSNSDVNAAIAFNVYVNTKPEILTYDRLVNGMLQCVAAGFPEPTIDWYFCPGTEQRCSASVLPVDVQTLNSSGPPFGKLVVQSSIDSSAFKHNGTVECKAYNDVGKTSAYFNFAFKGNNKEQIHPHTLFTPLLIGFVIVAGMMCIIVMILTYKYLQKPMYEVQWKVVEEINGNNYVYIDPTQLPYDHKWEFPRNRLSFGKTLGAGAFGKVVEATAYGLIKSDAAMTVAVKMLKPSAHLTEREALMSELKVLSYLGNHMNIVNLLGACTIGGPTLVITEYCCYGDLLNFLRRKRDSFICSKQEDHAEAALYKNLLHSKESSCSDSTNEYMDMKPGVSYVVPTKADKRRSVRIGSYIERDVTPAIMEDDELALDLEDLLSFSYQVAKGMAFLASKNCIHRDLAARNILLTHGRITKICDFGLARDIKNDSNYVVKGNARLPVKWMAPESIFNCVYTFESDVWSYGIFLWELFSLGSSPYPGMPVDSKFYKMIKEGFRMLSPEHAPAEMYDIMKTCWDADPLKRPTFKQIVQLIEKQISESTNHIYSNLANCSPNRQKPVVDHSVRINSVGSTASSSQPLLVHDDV
Sequence of Cytoplasmic tyrosine-protein kinase BMX (Homo sapiens) (P51813 whole entry, the tested form may be a part): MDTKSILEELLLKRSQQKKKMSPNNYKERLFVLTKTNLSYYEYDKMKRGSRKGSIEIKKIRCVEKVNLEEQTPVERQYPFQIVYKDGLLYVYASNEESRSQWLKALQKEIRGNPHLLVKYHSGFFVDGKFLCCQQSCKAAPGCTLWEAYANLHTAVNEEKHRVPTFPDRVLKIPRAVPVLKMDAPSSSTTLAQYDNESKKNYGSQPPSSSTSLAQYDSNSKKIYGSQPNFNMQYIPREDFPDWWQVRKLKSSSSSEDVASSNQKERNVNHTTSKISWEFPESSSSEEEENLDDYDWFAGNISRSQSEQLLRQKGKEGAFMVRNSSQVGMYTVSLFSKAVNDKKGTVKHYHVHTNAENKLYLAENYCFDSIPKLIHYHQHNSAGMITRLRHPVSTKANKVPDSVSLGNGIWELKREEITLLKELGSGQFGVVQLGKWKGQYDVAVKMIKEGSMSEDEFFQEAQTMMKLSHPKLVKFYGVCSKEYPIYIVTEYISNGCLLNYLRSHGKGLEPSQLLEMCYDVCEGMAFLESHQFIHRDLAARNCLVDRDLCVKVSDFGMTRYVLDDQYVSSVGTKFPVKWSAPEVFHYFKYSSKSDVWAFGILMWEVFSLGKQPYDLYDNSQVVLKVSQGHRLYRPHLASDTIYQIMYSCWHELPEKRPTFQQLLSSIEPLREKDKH
Sequence of Fibroblast growth factor receptor 2 (Homo sapiens) (P21802 22-821 limits assumed): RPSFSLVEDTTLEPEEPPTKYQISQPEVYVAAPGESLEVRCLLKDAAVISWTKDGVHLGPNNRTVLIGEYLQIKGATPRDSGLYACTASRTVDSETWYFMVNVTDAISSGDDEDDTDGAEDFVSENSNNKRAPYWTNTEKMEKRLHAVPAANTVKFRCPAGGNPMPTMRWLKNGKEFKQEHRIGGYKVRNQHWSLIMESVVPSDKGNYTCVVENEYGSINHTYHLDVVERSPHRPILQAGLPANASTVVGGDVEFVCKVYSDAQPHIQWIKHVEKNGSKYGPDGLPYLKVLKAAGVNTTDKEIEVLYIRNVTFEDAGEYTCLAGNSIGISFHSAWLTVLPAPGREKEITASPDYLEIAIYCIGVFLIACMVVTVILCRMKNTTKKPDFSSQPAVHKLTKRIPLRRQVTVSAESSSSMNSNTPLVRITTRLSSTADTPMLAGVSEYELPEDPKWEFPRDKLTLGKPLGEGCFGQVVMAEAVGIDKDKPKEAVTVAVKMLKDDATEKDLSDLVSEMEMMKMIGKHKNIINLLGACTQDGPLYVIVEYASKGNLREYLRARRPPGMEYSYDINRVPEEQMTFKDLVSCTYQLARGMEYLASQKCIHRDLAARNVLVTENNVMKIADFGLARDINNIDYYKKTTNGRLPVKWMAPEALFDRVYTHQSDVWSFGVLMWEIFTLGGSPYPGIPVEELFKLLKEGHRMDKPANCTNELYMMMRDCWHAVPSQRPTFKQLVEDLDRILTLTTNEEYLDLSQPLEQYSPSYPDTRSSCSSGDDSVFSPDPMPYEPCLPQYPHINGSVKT
Sequence of Vascular endothelial growth factor receptor 1 (Homo sapiens) (P17948 whole entry, the tested form may be a part): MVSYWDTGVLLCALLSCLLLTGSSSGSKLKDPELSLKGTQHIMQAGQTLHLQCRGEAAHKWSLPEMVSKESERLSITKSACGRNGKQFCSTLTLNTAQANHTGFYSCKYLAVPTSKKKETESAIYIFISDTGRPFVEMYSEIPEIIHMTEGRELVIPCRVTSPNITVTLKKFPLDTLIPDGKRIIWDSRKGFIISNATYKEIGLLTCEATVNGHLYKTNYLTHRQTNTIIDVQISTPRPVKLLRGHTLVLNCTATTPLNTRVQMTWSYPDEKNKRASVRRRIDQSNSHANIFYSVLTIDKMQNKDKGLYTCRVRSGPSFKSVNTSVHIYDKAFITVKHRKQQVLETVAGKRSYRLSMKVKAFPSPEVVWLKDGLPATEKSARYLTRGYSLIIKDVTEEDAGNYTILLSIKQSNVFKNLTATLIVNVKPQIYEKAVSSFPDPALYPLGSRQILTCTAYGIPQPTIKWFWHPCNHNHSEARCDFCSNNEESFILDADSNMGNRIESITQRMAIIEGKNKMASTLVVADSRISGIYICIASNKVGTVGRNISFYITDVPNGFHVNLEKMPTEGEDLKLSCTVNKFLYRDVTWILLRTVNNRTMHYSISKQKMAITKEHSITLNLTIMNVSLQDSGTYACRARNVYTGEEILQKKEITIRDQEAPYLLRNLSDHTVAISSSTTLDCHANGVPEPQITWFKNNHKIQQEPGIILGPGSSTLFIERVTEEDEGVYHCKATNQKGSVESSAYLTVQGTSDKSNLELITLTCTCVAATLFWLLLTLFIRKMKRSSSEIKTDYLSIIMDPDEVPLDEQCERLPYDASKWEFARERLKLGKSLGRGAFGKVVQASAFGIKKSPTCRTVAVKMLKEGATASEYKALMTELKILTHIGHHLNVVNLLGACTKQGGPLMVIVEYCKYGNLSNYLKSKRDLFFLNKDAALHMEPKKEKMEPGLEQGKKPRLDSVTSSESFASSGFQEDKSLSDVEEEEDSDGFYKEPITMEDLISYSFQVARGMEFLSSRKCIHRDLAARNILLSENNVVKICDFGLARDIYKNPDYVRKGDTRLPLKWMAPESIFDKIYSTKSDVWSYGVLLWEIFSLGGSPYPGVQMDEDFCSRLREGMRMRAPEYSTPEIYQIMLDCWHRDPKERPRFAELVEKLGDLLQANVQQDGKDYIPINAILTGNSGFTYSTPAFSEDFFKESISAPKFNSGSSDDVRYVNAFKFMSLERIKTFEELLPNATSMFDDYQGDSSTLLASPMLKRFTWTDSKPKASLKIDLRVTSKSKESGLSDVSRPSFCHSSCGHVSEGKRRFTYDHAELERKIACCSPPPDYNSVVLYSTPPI

CN1CCN(Cc2ccc(NC(=O)CCSc3ccc4c(/C=C/c5ccccn5)n[nH]c4c3)cc2C(F)(F)F)CC1
CL/F [1]: 723 mL/min/kg
Activity (K562): Active
inhibition [2]: Active
GI50 [3]: 2340 nM
bioavailability [4]: 10.9%
GI50 [5]: 6 nM
GI50 [6]: 17 nM
Vz [7]: 139.1 L/kg
GI50 [8]: 42 nM
Tmax [9]: 3.3 h
GI50 [10]: 1050 nM
GI50 [11]: 2 nM
Activity (KU812 cell line): Active
GI50 [12]: 200 nM
CLz/F [13]: 85 mL/min/kg
GI50 [14]: 180 nM
Vd [15]: 45.3 L/kg
Tmax [16]: 1 h
AUC(0-inf) [17]: 230 ng·h/mL
IC50 [18]: 2 nM
IC50 [19]: 17 nM
Vz [20]: 124.9 L/kg
GI50 (HL-60): 870 nM
GI50 [21]: 36 nM
half-life [22]: 2.3 h
GI50 [23]: 33 nM
EC50 (Bcr/Abl fusion protein): < 30 nM
inhibition [24]: Dose-dependent effect
GI50 [25]: 15 nM
GI50 [26]: 3 nM
GI50 (MEC1): 500 nM
half-life [27]: 2.6 h
Activity (BaF3): Active
GI50 [28]: 25 nM
RatioGI50 [29]: 400
GI50 [30]: 120 nM
GI50 [31]: 103 nM
Tmax [32]: 1.2 min
